Values after ≈ are worked out from the molar mass of the structure shown.
Tests used:
[1] = Toxicity in human dermal fibroblasts; assay type: cell-based; settings: fibroblast
Staphylococcus aureus [2] = assay: Antibacterial activity against methicillin-resistant Staphylococcus aureus ATCC 43300 after 24 hrs by agar dilution method; assay type: functional; settings: ATCC 43300, 24 h
Serum = assay: Stability in human blood serum after 24 hrs; assay type: ADME, cell-free
Staphylococcus aureus [3] = assay: Antibacterial activity against Staphylococcus aureus ATCC 25923 after 24 hrs by agar dilution method; assay type: functional; settings: ATCC 25923, 24 h
[4] = Chemical stability up to 60 degC after 24 hrs; assay type: physicochemical

Compound | Activity [1] | MIC (Staphylococcus aureus [2]) [µg/mL] | Activity (Serum) | MIC (Staphylococcus aureus [3]) [µg/mL] | Activity [4]
C=CC(=O)Oc1ccc(C2C(OC)C(=O)N2SC)cc1 (stereo not given) | Non-toxic | 128 (≈ 436 µM) | Stable | 128 (≈ 436 µM) | Stable
C=CC(=O)Oc1ccc(C2C(OC(=O)C=C)C(=O)N2SC)cc1 (stereo not given) | Non-toxic | 128 (≈ 384 µM) | Stable | 128 (≈ 384 µM) | Stable
C=CC(=O)OC1C(=O)N(SC)C1c1ccccc1Cl (stereo not given) | Non-toxic | 128 (≈ 430 µM) | Stable | 128 (≈ 430 µM) | Stable
C=CC(=O)OCCOC(=O)CCC(=O)OC1C(=O)N(SC)C1c1ccccc1Cl (stereo not given) | Non-toxic | 64 (≈ 145 µM) | Stable | 64 (≈ 145 µM) | Stable

From ChEMBL document CHEMBL1146263, “Antibiotic-conjugated polyacrylate nanoparticles: new opportunities for development of anti-MRSA agents” (Bioorg Med Chem Lett, 2007)
